Measured values reported in patent US20220324835A1 (Nurix Therapeutics, Inc., priority 2018, published 2022).

How the values were obtained:
Cbl-b [1] = target: T1, Cbl-b (Homo sapiens, UniProt Q13191); experiment: Cbl-b inhibition assay (Cbl-b activity assay, FRET, Biological Example 1; 100 mM NaCl, 60 nM Src kinase); type: biochemical; details: upper bound stated in text lists; read-out: IC50 values in the Cbl-b inhibition assay of Biological Example 1
In short: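 Binding-based Cbl-b activity assay. Src-phosphorylated, N-terminally biotin-Avi-tagged Cbl-b recruits labelled UbcH5B-Ub, and proximity to streptavidin-terbium yields FRET.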

T-cell [2] = experiment: IL-2 secretion from T-cells co-stimulated with anti-CD3 and anti-CD28 antibody (Biological Example 2); type: cell-based, human; details: for fold induction at 0.3 µM / fold induction at 1 µM / fold induction at 4 µM: Homo sapiens, T-cell, read-out: IL-2 secretion Anti-CD3/Anti-CD28 stimulation; for fold induction at 0.3 µM: 0.3 μM Cbl-b inhibitor; for fold induction at 1 µM: 1 μM Cbl-b inhibitor; for fold induction at 4 µM: 4 μM Cbl-b inhibitor; for IL-2 secretion, Anti-CD3/Anti-CD28 stimulation, fold change over baseline: baseline = anti-CD3/anti-CD28 stimulated cells without inhibitor
Source text: (§1) Methods for experimentally determining increased T-cell activation, increased T-cell proliferation, decreased T-cell exhaustion, and/or decreased T-cell tolerance are well known in the art.
(§2) Modulation of activity of an immune cell, such as a T-cell, a B cell or a NK cell can be measured by determining a baseline value for a parameter of interest (e.g., cytokine secretion). […] A reference value then is obtained for T-cell activation after contacting or administering said Cbl-b inhibitor. The reference value is compared to the baseline value in order to determine the amount of T-cell activation due to contact or administration of the Cbl-b inhibitor or composition thereof. […] Immune cell activation can be assessed by measuring biological markers of activation such as increased cytokine secretion, increased cell surface expression of activation markers (e.g., cell surface markers), or increased phosphorylation of proteins in a downstream signaling pathway. The fold over baseline value that indicates immune cell activation can be determined for the parameter being tested and the conditions under which the immune cell were treated. For example, for measuring T-cell activation, a baseline value can be obtained from T-cells stimulated with anti-CD3 antibody in combination with anti-CD28 antibody, wherein the cells are not incubated with a Cbl-b inhibitor. […] A positive response for immune cell activation can then be determined by the obtained reference value. […]

T-cell [3] = experiment: IL-2 secretion from T-cells stimulated with anti-CD3 antibody alone (Biological Example 2); type: cell-based, human; details: for fold induction at 1 µM / fold induction at 8 µM: T-cell, read-out: IL-2 secretion Anti-CD3 stimulation; for fold induction at 1 µM: 1 μM Cbl-b inhibitor; for fold induction at 8 µM: 8 μM Cbl-b inhibitor
Source text: as §1
(§3) Modulation of activity of an immune cell, such as a T-cell, a B cell or a NK cell can be measured by determining a baseline value for a parameter of interest (e.g., cytokine secretion). […] A reference value then is obtained for T-cell activation after contacting or administering said Cbl-b inhibitor. The reference value is compared to the baseline value in order to determine the amount of T-cell activation due to contact or administration of the Cbl-b inhibitor or composition thereof. […] Immune cell activation can be assessed by measuring biological markers of activation such as increased cytokine secretion, increased cell surface expression of activation markers (e.g., cell surface markers), or increased phosphorylation of proteins in a downstream signaling pathway. The fold over baseline value that indicates immune cell activation can be determined for the parameter being tested and the conditions under which the immune cell were treated. For example, for measuring T-cell activation, a baseline value can be obtained from T-cells stimulated with anti-CD3 antibody in combination with anti-CD28 antibody, wherein the cells are not incubated with a Cbl-b inhibitor. […] A positive response for immune cell activation can then be determined by the obtained reference value.
(§4) In some embodiments, a baseline value can be obtained from T-cells stimulated with anti-CD3 antibody alone, wherein the cells are not incubated with a Cbl-b inhibitor. In some embodiments, a positive response for T-cell activation as measured by cytokine secretion (e.g., IL-2 secretion) by T-cells stimulated with anti-CD3 antibody alone in the presence of a Cbl-b inhibitor is at least 0.1-fold over the baseline value for cytokine secretion (e.g., IL-2 secretion) obtained from T-cells stimulated with anti-CD3 antibody alone in the absence of a Cbl-b inhibitor. In some embodiments, a positive response for T-cell activation as measured by surface marker expression (e.g., CD25 surface marker staining) by T-cells stimulated with anti-CD3 antibody alone in the presence of a Cbl-b inhibitor is at least 0.6-fold over the baseline value for surface marker expression (e.g., CD25 surface marker staining) obtained from T-cells stimulated with anti-CD3 antibody alone in the absence of a Cbl-b inhibitor.

T-cell [4] = experiment: CD25 cell surface staining on T-cells co-stimulated with anti-CD3 and anti-CD28 antibody (Biological Example 2); type: cell-based, human; details: for fold induction at 0.3 µM / fold induction at 1 µM / fold induction at 4 µM: Homo sapiens, T-cell, read-out: CD25 staining Anti-CD3/Anti-CD28 stimulation; for fold induction at 0.3 µM: 0.3 μM Cbl-b inhibitor; for fold induction at 1 µM: 1 μM Cbl-b inhibitor; for fold induction at 4 µM: 4 μM Cbl-b inhibitor; for CD25 staining, Anti-CD3/Anti-CD28 stimulation, fold change over baseline: baseline = anti-CD3/anti-CD28 stimulated cells without inhibitor
Source text: as §1, §2

T-cell [5] = experiment: CD25 cell surface staining on T-cells stimulated with anti-CD3 antibody alone (Biological Example 2); type: cell-based, human; details: for fold induction at 1 µM / fold induction at 8 µM: T-cell, read-out: CD25 staining Anti-CD3 stimulation; for fold induction at 1 µM: 1 μM Cbl-b inhibitor; for fold induction at 8 µM: 8 μM Cbl-b inhibitor; for CD25 staining, Anti-CD3 stimulation, fold change over baseline: baseline = anti-CD3/anti-CD28 stimulated cells without inhibitor
Source text: as §1, §3, §4

Cbl-b [6] = target: T1, Cbl-b; experiment: Cbl-b activity assay (Cbl-b inhibition assay), TR-FRET of Cbl-b interaction with UbcH5B-Ub; type: biochemical
In short: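 TR-FRET readout of Cbl-b binding to Bodipy-fluorescein N-terminally labeled Ub conjugated to UbcH5B C85K, measured with compound present. After compound incubation, 60 nM Src kinase with 1 mM ATP and 5 mM MgCl2 (final) was added for 1.5 h, then a further 1 h incubation; asterisked values used 50 mM NaCl buffer and 30 nM Src.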

[7] = fold change over baseline, primary human total T-cells
[8] = assay buffer with 100 mM NaCl, 60 nM Src kinase, read-out: Cbl-b activity IC50
[9] = fold change over baseline (anti-CD3/anti-CD28 stimulated T-cells without inhibitor)
[10] = Homo sapiens, fold change over baseline (anti-CD3/anti-CD28 stimulated T-cells without inhibitor)
[11] = 0.3 μM compound, primary human total T-cells
[12] = 1 μM compound, primary human total T-cells
[13] = 4 μM compound, primary human total T-cells
[14] = 8 μM compound, primary human total T-cells

T1 sequence (Q13191 36-427): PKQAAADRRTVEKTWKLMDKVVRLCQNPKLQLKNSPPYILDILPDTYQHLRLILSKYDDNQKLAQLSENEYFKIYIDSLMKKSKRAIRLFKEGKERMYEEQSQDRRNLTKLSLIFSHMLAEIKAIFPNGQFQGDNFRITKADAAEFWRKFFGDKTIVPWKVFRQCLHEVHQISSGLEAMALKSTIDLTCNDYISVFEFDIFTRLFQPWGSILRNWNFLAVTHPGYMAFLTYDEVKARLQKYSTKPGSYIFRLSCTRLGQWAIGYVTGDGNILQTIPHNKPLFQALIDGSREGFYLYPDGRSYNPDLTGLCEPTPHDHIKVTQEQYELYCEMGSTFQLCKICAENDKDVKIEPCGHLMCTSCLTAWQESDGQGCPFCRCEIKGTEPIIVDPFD

| SMILES | IC50 (Cbl-b [1]) | fold induction at 0.3 µM (T-cell [2]; [7]) | fold induction at 1 µM (T-cell [2]; [7]) | fold induction at 4 µM (T-cell [2]; [7]) | fold induction at 1 µM (T-cell [3]; [7]) | fold induction at 8 µM (T-cell [3]; [7]) | fold induction at 0.3 µM (T-cell [4]; [7]) | fold induction at 1 µM (T-cell [4]; [7]) | fold induction at 4 µM (T-cell [4]; [7]) | fold induction at 1 µM (T-cell [5]; [7]) | fold induction at 8 µM (T-cell [5]; [7]) | IC50 (Cbl-b [6]; [8]) | fold induction at 0.3 µM (T-cell [2]; [9]) | fold induction at 1 µM (T-cell [2]; [9]) | fold induction at 1 µM (T-cell [3]; [10]) | fold induction at 0.3 µM (T-cell [4]; [9]) | fold induction at 1 µM (T-cell [4]; [9]) | fold induction at 1 µM (T-cell [5]; [10]) | also measured |
| --- | --- | --- | --- | --- | --- | --- | --- | --- | --- | --- | --- | --- | --- | --- | --- | --- | --- | --- | --- |
| C[C@@H](c1cccc(N2Cc3c(cccc3C(F)(F)F)C2=O)c1)[C@H](F)c1nncn1C (relative stereo) [Compound 293, trans-2-(3-(1-fluoro-1-(4-methyl-4H-1,2,4-triazol-3-yl)propan-2-yl)phenyl)-4-(trifluoromethyl)isoindolin-1-one] | ≤ 500 nM | 2.51 to 5 | 2.51 to 5 | 2.51 to 5 | 0.101 to 0.15 | > 0.201 | 1.01 to 1.3 | 1.01 to 1.3 | 1.01 to 1.3 | 0.601 to 0.8 | 0.801 to 1 | 0.1 to 0.3 µM |  |  |  |  |  |  |  |
| CO[C@@H]1CCN(Cc2cc3c(c(C(F)(F)F)c2)CN(c2cccc(C4(Cc5nncn5C)COC4)c2)C3=O)C[C@@H]1F (relative stereo) [Example 621, 6-(((cis)-3-fluoro-4-methoxypiperidin-1-yl)methyl)-2-(3-(3-((4-methyl-4H-1,2,4-triazol-3-yl)methyl)oxetan-3-yl)phenyl)-4-(trifluoromethyl)isoindolin-1-one] | ≤ 100 nM |  |  |  |  |  |  |  |  |  |  | < 0.1 µM | > 7.5 | > 7.5 | > 0.201 | 1.31 to 1.5 | 1.31 to 1.5 | > 1 |  |
| C[C@@H]1CCN(Cc2cc3c(c(C(F)(F)F)c2)CN(c2cccc(C4(Cc5nncn5C)COC4)c2)C3=O)C[C@H]1F (relative stereo) [Example 631, 6-((trans-3-fluoro-4-methylpiperidin-1-yl)methyl)-2-(3-(3-((4-methyl-4H-1,2,4-triazol-3-yl)methyl)oxetan-3-yl)phenyl)-4-(trifluoromethyl)isoindolin-1-one] | ≤ 100 nM |  |  |  |  |  |  |  |  |  |  | < 0.1 µM | > 7.5 | > 7.5 | > 0.201 | 1.31 to 1.5 | 1.51 to 1.75 | > 1 |  |
| Cc1c[nH]nc1C[C@H](C)c1cccc(N2Cc3c(cccc3C(F)(F)F)C2=O)c1 (single isomer, unassigned) [Compound 270a] | ≤ 1000 nM | 1.01 to 2.5 | 1.01 to 2.5 | 1.01 to 2.5 | 0.101 to 0.15 | 0.151 to 0.2 | 1.01 to 1.3 | 1.01 to 1.3 | 1.01 to 1.3 | 0.601 to 0.8 | 0.801 to 1 | 0.301 to 1 µM |  |  |  |  |  |  |  |
| Cn1cnnc1[C@@H](F)[C@](C)(F)c1cccc(N2Cc3c(cccc3C(F)(F)F)C2=O)c1 (stereo in doubt) [Compound 480, 2-(3-((1R,2R)-1,2-difluoro-1-(4-methyl-4H-1,2,4-triazol-3-yl)propan-2-yl)phenyl)-4-(trifluoromethyl)isoindolin-1-one] | ≤ 300 nM |  |  |  |  |  |  |  |  |  |  | 0.1 to 0.3 µM |  |  |  |  |  |  | IL-2 secretion, Anti-CD3/Anti-CD28 stimulation, fold change over baseline (T-cell [2]; [11]): D (D indicates 1.01-2.50 fold); IL-2 secretion, Anti-CD3/Anti-CD28 stimulation, fold change over baseline (T-cell [2]; [12]): D (D indicates 1.01-2.50 fold); IL-2 secretion, Anti-CD3/Anti-CD28 stimulation, fold change over baseline (T-cell [2]; [13]): D (D indicates 1.01-2.50 fold); IL-2 secretion, Anti-CD3 stimulation, fold change over baseline (T-cell [3]; [12]): E (E indicates ≤0.050 fold); IL-2 secretion, Anti-CD3 stimulation, fold change over baseline (T-cell [3]; [14]): D (D indicates 0.051-0.1 fold); CD25 staining, Anti-CD3/Anti-CD28 stimulation, fold change over baseline (T-cell [4]; [11]): D (D indicates 1.01-1.30 fold); CD25 staining, Anti-CD3/Anti-CD28 stimulation, fold change over baseline (T-cell [4]; [12]): D (D indicates 1.01-1.30 fold); CD25 staining, Anti-CD3/Anti-CD28 stimulation, fold change over baseline (T-cell [4]; [13]): D (D indicates 1.01-1.30 fold); CD25 staining, Anti-CD3 stimulation, fold change over baseline (T-cell [5]; [12]): D (D indicates ≤0.600 fold); CD25 staining, Anti-CD3 stimulation, fold change over baseline (T-cell [5]; [14]): C (C indicates 0.601<0.800 fold) |
| CC(c1cc(C(=O)Nc2cccc(C3(Cc4nncn4C)COC3)c2)nc(C2CC2)n1)N1CCC2(CC2)C1 (stereo in doubt) [Example 592a, (R)-6-(1-(5-azaspiro[2.4]heptan-5-yl)ethyl)-2-cyclopropyl-N-(3-(3-((4-methyl-4H-1,2,4-triazol-3-yl)methyl)oxetan-3-yl)phenyl)pyrimidine-4-carboxamide] | ≤ 100 nM |  |  |  |  |  |  |  |  |  |  | < 0.1 µM | 5 to 7.5 | > 7.5 | > 0.201 | 1.01 to 1.3 | 1.01 to 1.3 | > 1 |  |
| COc1cccc(C(=O)Nc2cccc([C@H](C)Sc3nncn3C)c2)n1 [Compound 38, (S)-6-Methoxy-N-(3-(1-((4-methyl-4H-1,2,4-triazol-3-yl)thio)ethyl)phenyl)picolinamide] | ≤ 1000 nM | 1.01 to 2.5 | 1.01 to 2.5 | 2.51 to 5 | 0.101 to 0.15 | 0.151 to 0.2 | < 1 | < 1 | 1.31 to 1.5 | < 0.6 | 0.601 to 0.8 | 0.301 to 1 µM |  |  |  |  |  |  | IC50 (Cbl-b [6]; * assay buffer containing 50 mM NaCl instead of 100 mM NaCl and 30 nM Src kinase instead of 60 nM, read-out: Cbl-b activity IC50 (μM)*): 0.301 to 1 µM |
